In article PMC5622171 (Nature Communications, 2017):

What was measured:
Assay in all cases: KINOMEscan kinase profiling
Type in all cases: binding
ARK5 = target: T1, ARK5 (Homo sapiens, UniProt O60285)
T1 construct: purchased DiscoverX (Ambit Biosciences) KINOMEscan
Experimental: (§1) Kinase inhibition profiling assays. The kinase inhibition profiling assay (KINOMEscan) was performed by Ambit Biosciences, now part of DiscoveryX (Fremont, CA) in accordance with the […]
(§2) published protocol20, 21. […] If the inhibition of a kinase was greater […]
(§3) dilutions) starting from 30 µM.

CASK = target: T2, CASK (Homo sapiens, UniProt O14936); settings: read-out: %Inhibition by 10 μM SPA70
T2 construct: purchased DiscoverX (Ambit Biosciences) KINOMEscan
Experimental: as §1, §2, §3

CDK11 = target: T3, CDK11 (Homo sapiens, UniProt Q9BWU1)
T3 construct: purchased DiscoverX (Ambit Biosciences) KINOMEscan
Experimental: as §1, §2, §3

CDK3 = target: T4, CDK3 (Homo sapiens, UniProt Q00526)
T4 construct: purchased DiscoverX (Ambit Biosciences) KINOMEscan
Experimental: as §1, §2, §3

CDKL2 = target: T5, CDKL2 (Homo sapiens, UniProt Q92772); settings: read-out: %Inhibition by 10 μM SPA70
T5 construct: purchased DiscoverX (Ambit Biosciences) KINOMEscan
T5 sequence (Q92772 whole entry): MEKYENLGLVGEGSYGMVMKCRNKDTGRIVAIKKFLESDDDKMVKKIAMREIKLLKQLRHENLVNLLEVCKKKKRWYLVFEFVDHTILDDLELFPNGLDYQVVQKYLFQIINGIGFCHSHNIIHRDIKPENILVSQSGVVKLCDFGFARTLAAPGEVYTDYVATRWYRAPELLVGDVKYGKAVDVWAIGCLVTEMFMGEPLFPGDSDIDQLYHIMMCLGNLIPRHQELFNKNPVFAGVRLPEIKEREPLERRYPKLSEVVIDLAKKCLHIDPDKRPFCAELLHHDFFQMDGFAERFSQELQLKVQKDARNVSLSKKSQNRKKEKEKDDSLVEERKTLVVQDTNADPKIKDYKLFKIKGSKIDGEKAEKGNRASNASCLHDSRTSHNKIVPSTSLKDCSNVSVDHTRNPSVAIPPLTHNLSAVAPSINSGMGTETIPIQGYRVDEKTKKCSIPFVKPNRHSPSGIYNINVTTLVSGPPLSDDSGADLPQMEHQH
Experimental: as §1, §2, §3

CSNK1E = target: T6, CSNK1E (Homo sapiens, UniProt P49674); settings: read-out: %Inhibition by 10 μM SPA70
T6 construct: purchased DiscoverX (Ambit Biosciences) KINOMEscan
T6 sequence (P49674 whole entry): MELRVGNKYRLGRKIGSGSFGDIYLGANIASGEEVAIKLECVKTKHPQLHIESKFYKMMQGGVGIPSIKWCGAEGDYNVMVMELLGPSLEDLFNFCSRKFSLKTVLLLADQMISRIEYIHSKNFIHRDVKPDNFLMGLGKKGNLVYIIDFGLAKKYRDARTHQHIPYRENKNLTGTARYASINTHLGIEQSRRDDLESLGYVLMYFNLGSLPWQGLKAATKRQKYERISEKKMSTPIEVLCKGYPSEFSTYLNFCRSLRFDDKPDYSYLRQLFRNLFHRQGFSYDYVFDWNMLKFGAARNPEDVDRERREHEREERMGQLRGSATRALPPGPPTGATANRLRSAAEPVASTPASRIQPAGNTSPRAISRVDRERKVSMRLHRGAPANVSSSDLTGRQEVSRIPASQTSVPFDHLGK
Experimental: as §1, §2, §3

CSNK2A2 = target: T7, CSNK2A2 (Homo sapiens, UniProt P19784); settings: read-out: %Inhibition by 10 μM SPA70
T7 construct: purchased DiscoverX (Ambit Biosciences) KINOMEscan
Experimental: as §1, §2, §3

DAPK3 = target: T8, DAPK3 (Homo sapiens, UniProt O43293); settings: read-out: %Inhibition by 10 μM SPA70
T8 construct: purchased DiscoverX (Ambit Biosciences) KINOMEscan
Experimental: as §1, §2, §3

FES = target: T9, FES (Homo sapiens, UniProt P07332); settings: read-out: %Inhibition by 10 μM SPA70
T9 construct: purchased DiscoverX (Ambit Biosciences) KINOMEscan
Experimental: as §1, §2, §3

FGFR2 = target: T10, FGFR2 (Homo sapiens, UniProt P21802); settings: read-out: %Inhibition by 10 μM SPA70
T10 construct: purchased DiscoverX (Ambit Biosciences) KINOMEscan
Experimental: as §1, §2, §3

HIPK3 = target: T11, HIPK3 (Homo sapiens, UniProt Q9H422); settings: read-out: %Inhibition by 10 μM SPA70
T11 construct: purchased DiscoverX (Ambit Biosciences) KINOMEscan
Experimental: as §1, §2, §3

HIPK4 = target: T12, HIPK4 (Homo sapiens, UniProt Q8NE63); settings: read-out: %Inhibition by 10 μM SPA70
T12 construct: purchased DiscoverX (Ambit Biosciences) KINOMEscan
Experimental: as §1, §2, §3

HUNK = target: T13, HUNK (Homo sapiens, UniProt P57058); settings: read-out: %Inhibition by 10 μM SPA70
T13 construct: purchased DiscoverX (Ambit Biosciences) KINOMEscan
Experimental: as §1, §2, §3

[1] = target: T14, JAK1(JH2domain-pseudokinase) (Homo sapiens, UniProt P23458)
T14 construct: JAK1(JH2domain-pseudokinase); purchased DiscoverX (Ambit Biosciences) KINOMEscan
Experimental: as §1, §2, §3

LOK = target: T15, LOK (Homo sapiens, UniProt O94804)
T15 construct: purchased DiscoverX (Ambit Biosciences) KINOMEscan
Experimental: as §1, §2, §3

LRRK2 = target: T16, LRRK2 (Homo sapiens, UniProt Q5S007); settings: read-out: %Inhibition by 10 μM SPA70
T16 construct: purchased DiscoverX (Ambit Biosciences) KINOMEscan
Experimental: as §1, §2, §3

MAP3K3 = target: T17, MAP3K3 (Homo sapiens, UniProt Q99759); settings: read-out: %Inhibition by 10 μM SPA70
T17 construct: purchased DiscoverX (Ambit Biosciences) KINOMEscan
Experimental: as §1, §2, §3

MARK1 = target: T18, MARK1 (Homo sapiens, UniProt Q9P0L2); settings: read-out: %Inhibition by 10 μM SPA70
T18 construct: purchased DiscoverX (Ambit Biosciences) KINOMEscan
Experimental: as §1, §2, §3

MARK4 = target: T19, MARK4 (Homo sapiens, UniProt Q96L34)
T19 construct: purchased DiscoverX (Ambit Biosciences) KINOMEscan
Experimental: as §1, §2, §3

MKNK1 = target: T20, MKNK1 (Homo sapiens, UniProt Q9BUB5); settings: read-out: %Inhibition by 10 μM SPA70
T20 construct: purchased DiscoverX (Ambit Biosciences) KINOMEscan
Experimental: as §1, §2, §3

NEK11 = target: T21, NEK11 (Homo sapiens, UniProt Q8NG66); settings: read-out: %Inhibition by 10 μM SPA70
T21 construct: purchased DiscoverX (Ambit Biosciences) KINOMEscan
Experimental: as §1, §2, §3

NEK7 = target: T22, NEK7 (Homo sapiens, UniProt Q8TDX7); settings: read-out: %Inhibition by 10 μM SPA70
T22 construct: purchased DiscoverX (Ambit Biosciences) KINOMEscan
Experimental: as §1, §2, §3

PDGFRB = target: T23, PDGFRB (Homo sapiens, UniProt P09619); settings: read-out: %Inhibition by 10 μM SPA70
T23 construct: purchased DiscoverX (Ambit Biosciences) KINOMEscan
T23 sequence (P09619 33-1106): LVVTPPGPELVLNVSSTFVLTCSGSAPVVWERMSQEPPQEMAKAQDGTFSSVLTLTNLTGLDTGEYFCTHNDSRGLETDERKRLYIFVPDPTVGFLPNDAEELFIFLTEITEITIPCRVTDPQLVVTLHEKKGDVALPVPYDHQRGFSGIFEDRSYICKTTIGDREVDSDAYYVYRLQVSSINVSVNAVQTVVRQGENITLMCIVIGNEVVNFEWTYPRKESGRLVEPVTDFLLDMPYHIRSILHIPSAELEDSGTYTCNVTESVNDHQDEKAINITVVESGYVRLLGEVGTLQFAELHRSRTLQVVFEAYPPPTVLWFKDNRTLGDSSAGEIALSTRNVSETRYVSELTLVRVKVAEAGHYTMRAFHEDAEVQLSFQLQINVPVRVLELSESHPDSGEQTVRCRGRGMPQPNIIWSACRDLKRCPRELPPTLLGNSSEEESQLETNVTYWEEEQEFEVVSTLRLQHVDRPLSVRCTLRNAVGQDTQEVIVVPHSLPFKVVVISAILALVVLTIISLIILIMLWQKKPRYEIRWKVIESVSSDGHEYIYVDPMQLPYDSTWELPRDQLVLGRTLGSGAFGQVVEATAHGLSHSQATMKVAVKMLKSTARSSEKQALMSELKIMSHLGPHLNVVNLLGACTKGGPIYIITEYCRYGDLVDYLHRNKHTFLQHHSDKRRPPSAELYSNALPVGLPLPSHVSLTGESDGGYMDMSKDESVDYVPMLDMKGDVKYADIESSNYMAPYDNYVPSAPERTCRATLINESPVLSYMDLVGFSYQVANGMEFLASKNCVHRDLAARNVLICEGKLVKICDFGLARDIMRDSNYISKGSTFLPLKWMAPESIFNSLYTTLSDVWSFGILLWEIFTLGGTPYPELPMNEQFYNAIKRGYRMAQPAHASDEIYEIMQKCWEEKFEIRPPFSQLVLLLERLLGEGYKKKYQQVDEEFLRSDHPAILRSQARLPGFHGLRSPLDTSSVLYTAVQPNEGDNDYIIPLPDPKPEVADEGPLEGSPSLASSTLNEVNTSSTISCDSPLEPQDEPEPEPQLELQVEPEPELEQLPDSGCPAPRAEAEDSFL
Experimental: as §1, §2, §3

PDPK1 = target: T24, PDPK1 (Homo sapiens, UniProt O15530); settings: read-out: %Inhibition by 10 μM SPA70
T24 construct: purchased DiscoverX (Ambit Biosciences) KINOMEscan
Experimental: as §1, §2, §3

PHKG1 = target: T25, PHKG1 (Homo sapiens, UniProt Q16816); settings: read-out: %Inhibition by 10 μM SPA70
T25 construct: purchased DiscoverX (Ambit Biosciences) KINOMEscan
T25 sequence (Q16816 whole entry): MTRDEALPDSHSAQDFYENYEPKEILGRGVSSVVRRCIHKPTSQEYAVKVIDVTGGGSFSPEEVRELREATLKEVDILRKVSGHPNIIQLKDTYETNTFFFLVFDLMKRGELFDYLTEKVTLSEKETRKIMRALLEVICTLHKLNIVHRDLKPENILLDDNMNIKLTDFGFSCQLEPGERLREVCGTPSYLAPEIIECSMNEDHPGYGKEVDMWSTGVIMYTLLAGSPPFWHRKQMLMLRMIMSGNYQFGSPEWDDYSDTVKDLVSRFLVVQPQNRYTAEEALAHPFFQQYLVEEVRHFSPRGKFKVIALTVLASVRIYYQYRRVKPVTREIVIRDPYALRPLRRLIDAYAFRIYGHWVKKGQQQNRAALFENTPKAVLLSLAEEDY
Experimental: as §1, §2, §3

PIK3C2B = target: T26, PIK3C2B (Homo sapiens, UniProt O00750); settings: read-out: %Inhibition by 10 μM SPA70
T26 construct: purchased DiscoverX (Ambit Biosciences) KINOMEscan
Experimental: as §1, §2, §3

PIK3CD = target: T27, PIK3CD (Homo sapiens, UniProt O00329); settings: read-out: %Inhibition by 10 μM SPA70
T27 construct: purchased DiscoverX (Ambit Biosciences) KINOMEscan
T27 sequence (O00329 whole entry): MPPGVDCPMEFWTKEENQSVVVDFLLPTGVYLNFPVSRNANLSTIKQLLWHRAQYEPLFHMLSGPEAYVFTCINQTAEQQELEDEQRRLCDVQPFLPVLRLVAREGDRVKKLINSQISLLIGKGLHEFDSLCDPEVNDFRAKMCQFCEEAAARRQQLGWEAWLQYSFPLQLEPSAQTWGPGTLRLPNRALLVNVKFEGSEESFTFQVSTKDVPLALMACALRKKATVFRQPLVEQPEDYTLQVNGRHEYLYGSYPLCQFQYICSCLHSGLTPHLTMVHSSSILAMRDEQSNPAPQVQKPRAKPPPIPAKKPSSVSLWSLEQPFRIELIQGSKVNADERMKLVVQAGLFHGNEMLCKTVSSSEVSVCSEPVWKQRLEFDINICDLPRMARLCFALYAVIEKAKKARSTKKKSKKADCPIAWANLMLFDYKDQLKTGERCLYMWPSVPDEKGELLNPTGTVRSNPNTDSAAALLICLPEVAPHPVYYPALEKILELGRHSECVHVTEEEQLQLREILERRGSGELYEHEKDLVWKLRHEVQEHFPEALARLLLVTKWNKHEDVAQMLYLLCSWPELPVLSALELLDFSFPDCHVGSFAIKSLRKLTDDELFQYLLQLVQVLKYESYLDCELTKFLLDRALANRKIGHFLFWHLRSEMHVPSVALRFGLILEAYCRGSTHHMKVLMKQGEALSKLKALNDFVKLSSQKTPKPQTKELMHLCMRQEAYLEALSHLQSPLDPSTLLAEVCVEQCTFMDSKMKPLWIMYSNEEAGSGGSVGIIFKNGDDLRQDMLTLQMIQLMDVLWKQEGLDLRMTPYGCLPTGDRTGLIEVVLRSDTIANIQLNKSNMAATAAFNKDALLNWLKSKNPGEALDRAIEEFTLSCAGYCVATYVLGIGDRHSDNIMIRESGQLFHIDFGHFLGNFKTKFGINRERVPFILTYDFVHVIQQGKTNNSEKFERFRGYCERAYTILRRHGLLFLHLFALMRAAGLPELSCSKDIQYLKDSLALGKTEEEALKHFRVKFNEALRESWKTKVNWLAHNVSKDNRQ
Experimental: as §1, §2, §3

PIP5K1C = target: T28, PIP5K1C (Homo sapiens, UniProt O60331)
T28 construct: purchased DiscoverX (Ambit Biosciences) KINOMEscan
Experimental: as §1, §2, §3

PKMYT1 = target: T29, PKMYT1 (Homo sapiens, UniProt Q99640)
T29 construct: purchased DiscoverX (Ambit Biosciences) KINOMEscan
Experimental: as §1, §2, §3

PLK3 = target: T30, PLK3 (Homo sapiens, UniProt Q9H4B4); settings: read-out: %Inhibition by 10 μM SPA70
T30 construct: purchased DiscoverX (Ambit Biosciences) KINOMEscan
Experimental: as §1, §2, §3

PRKCE = target: T31, PRKCE (Homo sapiens, UniProt Q02156); settings: read-out: %Inhibition by 10 μM SPA70
T31 construct: purchased DiscoverX (Ambit Biosciences) KINOMEscan
Experimental: as §1, §2, §3

PRKD2 = target: T32, PRKD2 (Homo sapiens, UniProt Q9BZL6); settings: read-out: %Inhibition by 10 μM SPA70
T32 construct: purchased DiscoverX (Ambit Biosciences) KINOMEscan
Experimental: as §1, §2, §3

QSK = target: T33, QSK (Homo sapiens, UniProt Q9Y2K2)
T33 construct: purchased DiscoverX (Ambit Biosciences) KINOMEscan
T33 sequence (Q9Y2K2 whole entry): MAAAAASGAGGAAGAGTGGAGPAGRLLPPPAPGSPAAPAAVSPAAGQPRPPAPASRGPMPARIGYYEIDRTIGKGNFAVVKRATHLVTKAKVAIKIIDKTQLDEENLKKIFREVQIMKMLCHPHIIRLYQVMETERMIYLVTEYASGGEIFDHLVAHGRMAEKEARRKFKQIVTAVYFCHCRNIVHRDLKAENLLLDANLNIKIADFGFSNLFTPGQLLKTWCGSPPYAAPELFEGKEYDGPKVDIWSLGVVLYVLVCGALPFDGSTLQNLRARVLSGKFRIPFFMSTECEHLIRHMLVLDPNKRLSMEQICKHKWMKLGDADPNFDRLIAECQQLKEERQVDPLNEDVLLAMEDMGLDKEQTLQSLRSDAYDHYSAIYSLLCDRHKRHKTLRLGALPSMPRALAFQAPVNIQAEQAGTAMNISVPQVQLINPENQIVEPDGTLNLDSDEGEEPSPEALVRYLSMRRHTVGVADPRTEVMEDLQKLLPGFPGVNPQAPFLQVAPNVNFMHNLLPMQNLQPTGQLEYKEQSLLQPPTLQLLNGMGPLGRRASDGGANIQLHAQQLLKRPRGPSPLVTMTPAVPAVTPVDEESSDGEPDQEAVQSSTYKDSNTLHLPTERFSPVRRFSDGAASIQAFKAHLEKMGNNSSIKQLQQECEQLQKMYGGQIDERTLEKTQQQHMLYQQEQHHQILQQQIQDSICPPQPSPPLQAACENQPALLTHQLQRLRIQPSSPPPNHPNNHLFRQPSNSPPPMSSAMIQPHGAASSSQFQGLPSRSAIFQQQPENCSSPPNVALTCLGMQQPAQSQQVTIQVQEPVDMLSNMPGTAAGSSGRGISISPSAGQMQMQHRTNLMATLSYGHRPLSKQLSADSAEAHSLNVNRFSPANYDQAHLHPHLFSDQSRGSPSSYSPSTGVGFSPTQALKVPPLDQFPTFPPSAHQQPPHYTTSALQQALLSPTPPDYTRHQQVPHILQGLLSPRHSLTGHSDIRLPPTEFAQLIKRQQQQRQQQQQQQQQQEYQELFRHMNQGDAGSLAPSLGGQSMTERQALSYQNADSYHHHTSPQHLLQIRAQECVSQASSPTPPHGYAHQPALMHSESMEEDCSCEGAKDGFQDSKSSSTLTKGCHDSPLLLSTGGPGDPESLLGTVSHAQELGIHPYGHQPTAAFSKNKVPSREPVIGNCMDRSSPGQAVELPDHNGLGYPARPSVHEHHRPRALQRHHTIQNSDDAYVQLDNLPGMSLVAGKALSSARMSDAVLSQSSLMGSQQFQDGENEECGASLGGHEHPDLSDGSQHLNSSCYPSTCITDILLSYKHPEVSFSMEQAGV
Experimental: as §1, §2, §3

[2] = target: T34, RSK1(Kin.Dom.2-C-terminal) (Homo sapiens, UniProt Q15418); settings: read-out: %Inhibition by 10 μM SPA70
T34 construct: RSK1(Kin.Dom.2-C-terminal); purchased DiscoverX (Ambit Biosciences) KINOMEscan
Experimental: as §1, §2, §3

STK33 = target: T35, STK33 (Homo sapiens, UniProt Q9BYT3); settings: read-out: %Inhibition by 10 μM SPA70
T35 construct: purchased DiscoverX (Ambit Biosciences) KINOMEscan
Experimental: as §1, §2, §3

SYK = target: T36, SYK (Homo sapiens, UniProt P43405)
T36 construct: purchased DiscoverX (Ambit Biosciences) KINOMEscan
Experimental: as §1, §2, §3

SgK110 = target: T37, SgK110 (Homo sapiens, UniProt P0C264); settings: read-out: %Inhibition by 10 μM SPA70
T37 construct: purchased DiscoverX (Ambit Biosciences) KINOMEscan
Experimental: as §1, §2, §3

TESK1 = target: T38, TESK1 (Homo sapiens, UniProt Q15569); settings: read-out: %Inhibition by 10 μM SPA70
T38 construct: purchased DiscoverX (Ambit Biosciences) KINOMEscan
Experimental: as §1, §2, §3

TGFBR2 = target: T39, TGFBR2 (Homo sapiens, UniProt P37173); settings: read-out: %Inhibition by 10 μM SPA70
T39 construct: purchased DiscoverX (Ambit Biosciences) KINOMEscan
Experimental: as §1, §2, §3

[3] = target: T40, TYK2(JH2domain-pseudokinase) (Homo sapiens, UniProt P29597)
T40 construct: TYK2(JH2domain-pseudokinase); purchased DiscoverX (Ambit Biosciences) KINOMEscan
T40 sequence (P29597 556-888 limits assumed): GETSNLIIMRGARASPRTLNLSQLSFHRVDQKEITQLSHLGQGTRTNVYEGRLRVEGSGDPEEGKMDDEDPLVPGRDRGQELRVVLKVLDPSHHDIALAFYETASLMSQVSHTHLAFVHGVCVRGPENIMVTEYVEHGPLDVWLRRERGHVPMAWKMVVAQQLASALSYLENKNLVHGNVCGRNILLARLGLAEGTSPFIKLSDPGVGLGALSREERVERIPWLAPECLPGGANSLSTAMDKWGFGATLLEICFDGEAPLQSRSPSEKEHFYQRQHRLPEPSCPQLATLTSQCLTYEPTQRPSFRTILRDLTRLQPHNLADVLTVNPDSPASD
Experimental: as §1, §2, §3

ZAP70 = target: T41, ZAP70 (Homo sapiens, UniProt P43403); settings: read-out: %Inhibition by 10 μM SPA70
T41 construct: purchased DiscoverX (Ambit Biosciences) KINOMEscan
Experimental: as §1, §2, §3

In the case of `COc1ccc(OC)c(-n2nnc(S(=O)(=O)c3ccc(C(C)(C)C)cc3)c2C)c1` [SPA70], the “%Inhibition by 10 μM SPA70” value (ARK5) is reported as 41%, the inhibition at 10 µM (CASK) is reported as 9% and the “%Inhibition by 10 μM SPA70” value (CDK11) is reported as 0%. For the same compound, the “%Inhibition by 10 μM SPA70” value (CDK3) was 3%, the inhibition at 10 µM (CDKL2) was 22% and the inhibition at 10 µM (CSNK1E) was 0%. For the same compound, the inhibition at 10 µM (CSNK2A2) was 10%, the inhibition at 10 µM (DAPK3) was 0% and the inhibition at 10 µM (FES) was 40%. For the same compound, the inhibition at 10 µM (FGFR2) was 0%, the inhibition at 10 µM (HIPK3) was 10% and the inhibition at 10 µM (HIPK4) was 0%. The inhibition at 10 µM (HUNK) was 15%, the “%Inhibition by 10 μM SPA70” value [1] was 0% and the “%Inhibition by 10 μM SPA70” value (LOK) was 0%. For the same compound, the inhibition at 10 µM (LRRK2) was 0%, the inhibition at 10 µM (MAP3K3) was 16% and the inhibition at 10 µM (MARK1) was 0%. For the same compound, the “%Inhibition by 10 μM SPA70” value (MARK4) was 0%, the inhibition at 10 µM (MKNK1) was 44% and the inhibition at 10 µM (NEK11) was 34%. The inhibition at 10 µM (NEK7) was 0%, the inhibition at 10 µM (PDGFRB) was 46% and the inhibition at 10 µM (PDPK1) was 0%. It also gave an inhibition at 10 µM (PHKG1) of 0%, an inhibition at 10 µM (PIK3C2B) of 0% and an inhibition at 10 µM (PIK3CD) of 0%. For the same compound, the “%Inhibition by 10 μM SPA70” value (PIP5K1C) was 0%, the “%Inhibition by 10 μM SPA70” value (PKMYT1) was 38% and the inhibition at 10 µM (PLK3) was 33%. For the same compound, the inhibition at 10 µM (PRKCE) was 0%, the inhibition at 10 µM (PRKD2) was 9% and the “%Inhibition by 10 μM SPA70” value (QSK) was 43%. For the same compound, the inhibition at 10 µM [2] was 12%, the inhibition at 10 µM (STK33) was 0% and the “%Inhibition by 10 μM SPA70” value (SYK) was 0%. For the same compound, the inhibition at 10 µM (SgK110) was 0%, the inhibition at 10 µM (TESK1) was 0% and the inhibition at 10 µM (TGFBR2) was 1%. The “%Inhibition by 10 μM SPA70” value [3] was 0% and the inhibition at 10 µM (ZAP70) was 22%.
